The source of these data is US20160222014A1, “COMPOUNDS FOR REGULATING FAK AND/OR SRC PATHWAYS” (ASANA BIOSCIENCES, LLC, priority 2013, published 2016).

One assay has as its target T1, Phospho Src(Y416) (Homo sapiens, UniProt P12931).
T1 construct: endogenous in cells; host or cells: Panc1
Put plainly: Phospho Src(Y416) Sandwich ELISA. Particulars: Panc1; read-out: pSrc EC50 (μM) Panc1. Format: cell-based. On the procedure: E. Phospho Src(Y416) Sandwich ELISA
Phospho Src(Y416) Sandwich ELISA kit was obtained from Cell Signaling Tech.
(i) Reagent Preparation • 1. All microwell strips were brought to rt before use. • 2. 1× Wash Buffer was prepared by diluting 20× Wash Buffer (included in each PathScan® Sandwich ELISA Kit) in MilliQ® water or equivalently purified water. • 3. 1× Cell Lysis Buffer from CST #9803: 20 mM Tris (pH 7.5), 150 mM NaCl, 1 mM ethylene diamine tetraacetate (EDTA), 1 mM ethylene glycol-bis(2-aminoethyl)-N,N,N′,N′-tetraacetic acid (EGTA), 1% Triton™ X-100, 2.5 mM sodium pyrophosphate, 1 mM b-glycerophosphate, 1 mM Na3VO4, 1 μg/mL leupeptin. This buffer was stored at 4° C. for short-term use (1-2 weeks).
(ii) Preparing Cell Lysates • 1. The media was aspirated. The cells were treated by adding fresh media containing inhibitor for 1 h. The compound of Example 214 was used as reference. • 2. The cells were harvested under non-denaturing conditions by removing media and rinsing cells once with ice-cold PBS. • 3. PBS was removed, 0.5 mL ice-cold 1× Cell Lysis Buffer plus 1 mM phenylmethylsulfonylfluoride (PMSF) was added to each plate (10 cm in diameter) and the plate incubated on ice for 5 min. • 4. The cells were scraped off of the plate, transferred to an appropriate tube, and kept on ice. • 5. The lysates were sonicated on ice. • 6. Microcentrifugation was performed for 10 min at 4° C. and the supernatant transferred to a new tube. The supernatant was the cell lysate and was stored at −80° C. in single-use aliquots.
(iii) Test Procedure • 1. After the microwell strips reached rt, the required number of microwells were broken off. The microwells were placed in the strip holder. Unused microwells were resealed and stored at 4° C. immediately. • 2. 100 μL of Sample Diluent (supplied in each PathScan® Sandwich ELISA Kit, blue color) was added to a micro centrifuge tube. 100 μL of cell lysate was transferred into the tube and vortexed for a few seconds. […] Individual data sheets for each kit provided information regarding an appropriate dilution factor for lysates and kit assay results. However, dilution factors were titrated when specific cell lysates are used. • 3. 100 μL of each diluted cell lysate were added to the appropriate well. It was then sealed with tape and pressed firmly onto top of microwells. The plate was incubated for 2 h at 37° C. Alternatively, the plate was incubated overnight at 4° C., which gave the best detection of target protein. • 4. The tape was gently removed and the wells washed: • a. The plate contents were discarded into a receptacle. • b. Each well was washed 4 times with 1× Wash Buffer, 200 μL. • c. For each wash, plates were struck on fresh towels hard enough to remove the residual solution in each well, but wells were not allowed to completely dry at any time. • d. The underside of all wells was cleaned with a lint-free tissue. • 5. 100 μL of Detection Antibody (green color) was added to each well, sealed with tape and the plate incubated for 1 h at 37° C. • 6. The wash procedure was repeated as in Step 4. • 7. 100 μL of HRP-linked secondary antibody (red color) was added to each well, sealed with tape and the plate incubated plate for 30 min at 37° C. • 8. The wash procedure was repeated as in Step 4. • 9. 100 μL of TMB Substrate was added to each well, sealed with tape and the plate incubated for 10 min at 37° C. or 30 min at 25° C. • 10. 100 μL of STOP Solution was added to each well and shaken gently for a few seconds. Initial color of positive reaction was blue, which changed to yellow upon addition of STOP Solution. • 11. The results were read. • a. Visual Determination—read within 30 min after adding STOP Solution. • b. Spectrophotometric Determination—the underside of wells were wiped with a lint-free tissue and absorbance read at 450 nm within 30 min after adding STOP Solution.

The next assay deals with T2, recombinant human FAK1 (Homo sapiens, UniProt Q05397).
T2 construct: fused on or other part: N-terminal 6xHis tag
Put plainly: FAK1 HTRF assay. Format: biochemical. In a few lines:
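IC50 values derive from HTRF % inhibition (ratio 665/620 nm, Eu–anti-phosphotyrosine 0.1 nM, SA-APC 12 nM). The kinase step ran 45 min at room temperature, pairing 10 nM His-FAK1(692–end) from baculovirus with 0.5 μM gastrin Tyr87 biotin-peptide and a reagent at 10 μM final, pH 7.4. Compound dilutions began at 10 μM.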

For another assay, the target named is T3, AURKB (Aurora B) enzyme (Homo sapiens, UniProt Q96GD4).
T3 construct: purchased Invitrogen PVR 130
Put plainly: Aurora B HTRF assay. The assay is classed as biochemical. The conditions noted are these: read-out: AuroraB IC50. In a few lines:
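Enzyme (5 nM final) and ULight-labelled PLK Ser137 peptide (50 nM) reacted 1 h at room temperature; a 30 μM final component was also present. Detection used EDTA-containing buffer with europium anti-phospho-PLK(Ser137) antibody at 2 nM, 1 h, then time-resolved FRET readout.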

The next assay addresses T4, Recombinant Src enzyme (Homo sapiens, UniProt P12931).
T4 construct: purchased Millipore 14-326; host or cells: Sf21 insect cells
Put plainly: Src HTRF assay. The assay is classed as biochemical. In a few lines:
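Run as for the FAK HTRF assay (same buffer, supplements, compound preparation and procedure), with dasatinib included. Reaction contained 0.5 μM biotin-tagged Tyk2 synthetic peptide, 5 nM Src made in Sf21 cells, and a pH7.4-buffer-prepared component at 10 μM final.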

The next assay addresses JAK2 (Homo sapiens, UniProt O60674). Put plainly: JAK2 biochemical potency. Particulars: read-out: JAK2 HTRF IC50.
Assay [1] deals with T5, FAK phosphorylated at Y397 in HEK-FAK cell line overexpressing human FL FAK protein (Homo sapiens, UniProt Q05397).
T5 construct: expressed in transfected cells
Put plainly: Cell based assay, Phospho-FAK ELISA. The conditions noted are these: HEK stb; read-out: pFAK EC50 (μM) HEK stb. An outline of the steps: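 Stable HEK293 line overexpressing full-length human FAK, kept under 0.8 mg/mL Zeocin. In lysates, FAK Y397 autophosphorylation was measured by sandwich ELISA: total-FAK capture antibody, biotinylated pY397-specific detection antibody, streptavidin-HRP with TMB substrate.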

T1 sequence (P12931 whole entry): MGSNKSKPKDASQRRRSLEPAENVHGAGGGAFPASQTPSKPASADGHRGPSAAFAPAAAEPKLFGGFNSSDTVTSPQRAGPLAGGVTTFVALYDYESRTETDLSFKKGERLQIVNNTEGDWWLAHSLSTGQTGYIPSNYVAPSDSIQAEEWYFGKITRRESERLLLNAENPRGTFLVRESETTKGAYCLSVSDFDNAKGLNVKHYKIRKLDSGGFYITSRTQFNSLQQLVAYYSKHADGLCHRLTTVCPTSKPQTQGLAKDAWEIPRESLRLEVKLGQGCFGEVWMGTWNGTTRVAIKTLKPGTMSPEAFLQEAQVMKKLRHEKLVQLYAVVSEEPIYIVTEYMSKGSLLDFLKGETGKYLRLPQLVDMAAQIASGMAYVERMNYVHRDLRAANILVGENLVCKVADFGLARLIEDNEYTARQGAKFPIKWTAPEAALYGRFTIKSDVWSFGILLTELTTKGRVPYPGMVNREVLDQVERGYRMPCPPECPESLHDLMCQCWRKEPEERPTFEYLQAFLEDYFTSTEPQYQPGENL
T2 sequence (Q05397 422-680 limits assumed): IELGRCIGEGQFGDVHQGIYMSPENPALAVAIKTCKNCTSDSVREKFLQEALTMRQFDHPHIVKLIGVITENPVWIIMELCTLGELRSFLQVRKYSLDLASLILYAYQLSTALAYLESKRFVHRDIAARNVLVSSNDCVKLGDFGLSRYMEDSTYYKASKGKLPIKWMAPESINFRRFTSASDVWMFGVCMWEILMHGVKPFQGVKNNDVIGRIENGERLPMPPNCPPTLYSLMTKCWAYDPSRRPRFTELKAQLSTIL
Sequence of JAK2 (O60674 whole entry, species assumed): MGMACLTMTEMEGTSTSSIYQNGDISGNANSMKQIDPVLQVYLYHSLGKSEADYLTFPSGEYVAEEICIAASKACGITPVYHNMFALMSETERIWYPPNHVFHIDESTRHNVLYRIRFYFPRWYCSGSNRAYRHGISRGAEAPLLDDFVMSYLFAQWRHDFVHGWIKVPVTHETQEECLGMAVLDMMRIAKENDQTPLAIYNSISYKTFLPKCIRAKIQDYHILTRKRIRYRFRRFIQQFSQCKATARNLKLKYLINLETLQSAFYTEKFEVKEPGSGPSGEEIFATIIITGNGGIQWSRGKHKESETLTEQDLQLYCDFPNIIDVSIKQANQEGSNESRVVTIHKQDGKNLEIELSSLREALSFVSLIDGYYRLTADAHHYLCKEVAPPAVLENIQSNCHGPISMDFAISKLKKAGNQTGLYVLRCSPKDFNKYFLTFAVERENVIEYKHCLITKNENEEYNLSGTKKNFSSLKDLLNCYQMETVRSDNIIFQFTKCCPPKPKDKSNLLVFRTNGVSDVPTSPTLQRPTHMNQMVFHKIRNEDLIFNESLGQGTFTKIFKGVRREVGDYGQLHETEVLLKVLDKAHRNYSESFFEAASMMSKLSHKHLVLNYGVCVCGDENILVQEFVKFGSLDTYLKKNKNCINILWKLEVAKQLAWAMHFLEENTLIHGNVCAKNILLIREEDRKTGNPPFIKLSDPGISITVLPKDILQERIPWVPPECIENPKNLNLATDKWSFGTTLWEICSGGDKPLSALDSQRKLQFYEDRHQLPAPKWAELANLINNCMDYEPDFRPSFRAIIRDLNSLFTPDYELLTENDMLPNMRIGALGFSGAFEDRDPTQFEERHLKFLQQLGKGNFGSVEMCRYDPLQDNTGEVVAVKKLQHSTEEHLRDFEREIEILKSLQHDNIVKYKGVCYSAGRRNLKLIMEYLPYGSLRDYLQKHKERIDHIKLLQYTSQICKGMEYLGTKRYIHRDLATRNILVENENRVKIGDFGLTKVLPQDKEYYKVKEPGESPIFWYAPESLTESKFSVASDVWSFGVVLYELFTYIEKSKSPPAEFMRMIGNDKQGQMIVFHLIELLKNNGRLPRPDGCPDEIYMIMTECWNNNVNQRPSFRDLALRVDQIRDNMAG
T3 sequence (Q96GD4 whole entry): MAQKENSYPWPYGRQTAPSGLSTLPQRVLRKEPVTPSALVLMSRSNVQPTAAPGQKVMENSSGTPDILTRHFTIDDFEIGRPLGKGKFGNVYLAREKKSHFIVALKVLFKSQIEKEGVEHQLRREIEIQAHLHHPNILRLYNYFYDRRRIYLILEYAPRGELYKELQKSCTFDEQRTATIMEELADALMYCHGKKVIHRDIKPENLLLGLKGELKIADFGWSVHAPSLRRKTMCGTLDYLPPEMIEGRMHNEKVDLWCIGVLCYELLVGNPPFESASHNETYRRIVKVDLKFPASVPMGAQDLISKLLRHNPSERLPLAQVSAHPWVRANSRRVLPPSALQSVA
T5 sequence (Q05397 whole entry): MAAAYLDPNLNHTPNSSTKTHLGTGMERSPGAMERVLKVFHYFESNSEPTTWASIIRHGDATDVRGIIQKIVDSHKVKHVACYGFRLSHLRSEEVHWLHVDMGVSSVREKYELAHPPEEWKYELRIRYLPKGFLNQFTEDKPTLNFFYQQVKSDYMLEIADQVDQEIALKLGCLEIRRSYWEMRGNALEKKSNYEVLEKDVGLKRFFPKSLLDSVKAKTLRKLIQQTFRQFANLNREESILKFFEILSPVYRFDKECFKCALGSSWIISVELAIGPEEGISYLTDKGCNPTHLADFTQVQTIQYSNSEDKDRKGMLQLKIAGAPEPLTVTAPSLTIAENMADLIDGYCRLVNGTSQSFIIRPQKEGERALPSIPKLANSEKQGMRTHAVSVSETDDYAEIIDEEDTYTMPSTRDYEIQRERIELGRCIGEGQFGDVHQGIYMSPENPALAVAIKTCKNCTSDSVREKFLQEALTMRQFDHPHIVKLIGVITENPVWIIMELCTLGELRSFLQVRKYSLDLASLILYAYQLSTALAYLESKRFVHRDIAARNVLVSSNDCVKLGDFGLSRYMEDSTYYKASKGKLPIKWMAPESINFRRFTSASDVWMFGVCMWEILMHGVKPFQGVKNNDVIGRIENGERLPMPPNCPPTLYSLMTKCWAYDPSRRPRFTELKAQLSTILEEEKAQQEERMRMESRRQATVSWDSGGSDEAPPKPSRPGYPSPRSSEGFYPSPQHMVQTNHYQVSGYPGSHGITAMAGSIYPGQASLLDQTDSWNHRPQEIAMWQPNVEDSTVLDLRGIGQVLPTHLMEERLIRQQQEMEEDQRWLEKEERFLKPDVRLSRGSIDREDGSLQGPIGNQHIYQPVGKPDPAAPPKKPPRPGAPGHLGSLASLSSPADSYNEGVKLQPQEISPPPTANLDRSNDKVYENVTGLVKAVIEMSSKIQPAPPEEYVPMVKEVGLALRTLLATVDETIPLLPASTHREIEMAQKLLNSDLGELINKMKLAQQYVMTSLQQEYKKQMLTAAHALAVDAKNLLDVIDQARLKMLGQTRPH
T4 sequence (P12931 whole entry): as the sequence (P12931 whole entry) above

`CC(=O)N1CCN(c2ccc(Nc3ncc4ccn(Cc5ccccc5N(C)S(C)(=O)=O)c4n3)cc2)CC1` [Example 465]: the EC50 at Phospho Src(Y416) is > 1 µM. Also, the 50% inhibitory concentration (IC50) at recombinant human FAK1 and at AURKB (Aurora B) enzyme was < 20 nM in each case.

For the compound `O=C1CCc2cc(Nc3cc4c(cn3)cnn4Cc3ccccc3OC(F)F)ccc2N1` [Example 65], the EC50 at Phospho Src(Y416) was > 1 µM. Also, the IC50 on Recombinant Src enzyme is < 20 nM; on AURKB (Aurora B) enzyme, > 1000 nM.

As to `O=C1CCc2cc(Nc3ncc4ccn(Cc5ccccc5OC(F)F)c4n3)ccc2N1` [Example 18], on Phospho Src(Y416), the EC50 was > 1 µM. Moreover, the IC50 on JAK2 and on AURKB (Aurora B) enzyme was < 20 nM throughout.

In the case of `CN(C)S(=O)(=O)c1ccccc1Cn1ccc2cnc(Nc3ccc4c(c3)CCC(=O)N4)nc21` [Example 137], the EC50 on Phospho Src(Y416) is > 1 µM. Moreover, the IC50 at recombinant human FAK1 and at AURKB (Aurora B) enzyme was < 20 nM throughout.

With `O=C1CCc2cc(Nc3ncc4ccn(S(=O)(=O)c5ccccc5Cl)c4n3)ccc2N1` [Example 199], the EC50 at Phospho Src(Y416) was > 1 µM. The IC50 on recombinant human FAK1 and at AURKB (Aurora B) enzyme was < 20 nM throughout.

In the case of `CN(c1ncccc1Cn1ccc2cnc(Nc3cccc4ncccc34)nc21)S(C)(=O)=O` [Example 160], on Phospho Src(Y416), the EC50 is > 1 µM. The IC50 at Recombinant Src enzyme is > 1000 nM.

Turning to `CN(c1ncccc1Cn1ccc2cnc(Nc3ccc(N4CCOCC4)cc3)nc21)S(C)(=O)=O` [Example 76], the EC50 on Phospho Src(Y416) was > 1 µM. Besides, the IC50 on JAK2 was < 20 nM.

Turning to `Cc1cc(Nc2cc3c(ccn3S(=O)(=O)c3cccc4cccnc34)cn2)ccc1N1CCNCC1` [Example 334], on Phospho Src(Y416), the EC50 was > 1 µM. Also, the half-inhibitory concentration (IC50) at recombinant human FAK1 and at AURKB (Aurora B) enzyme was < 20 nM in each case.

For the compound `CN(c1ncccc1Cn1ccc2cnc(Nc3ccc(N4CCC(CO)CC4)cc3)nc21)S(C)(=O)=O` [Example 559], the concentration for a half-maximal effect (EC50) (at Phospho Src(Y416); in assay [1]) was > 1 µM in each case.

Take `O=S(=O)(c1cccc2cccnc12)n1ccc2cnc(Nc3ccc(N4CCC(O)CC4)cc3)nc21` [Example 310]: the EC50 on Phospho Src(Y416) is > 1 µM. Besides, the IC50 on recombinant human FAK1, on JAK2 and on AURKB (Aurora B) enzyme was < 20 nM each time.

As to `O=C(Nc1ccc(Nc2ncc3ccn(S(=O)(=O)c4cccc5cccnc45)c3n2)cc1)C1CC1` [Example 331], the EC50 at Phospho Src(Y416) is > 1 µM. Moreover, the IC50 on recombinant human FAK1 and at AURKB (Aurora B) enzyme was < 20 nM throughout.

Consider `N#Cc1ccccc1S(=O)(=O)n1ccc2cnc(Nc3ccc(C4CCN(CC(N)=O)CC4)cc3)nc21` [Example 251], for which the EC50 on Phospho Src(Y416) was > 1 µM. For the same compound, the IC50 on AURKB (Aurora B) enzyme is < 20 nM.

Turning to `C[C@@H]1CN(c2ccc(Nc3ncc4ccn(Cc5ccccc5N(C)S(C)(=O)=O)c4n3)cc2)CCN1C` [Example 486], the EC50 on Phospho Src(Y416) was > 1 µM. The IC50 on recombinant human FAK1 and on AURKB (Aurora B) enzyme was < 20 nM in each case.

As to `NC(=O)CN1CCC(c2ccc(Nc3ncc4ccn(S(=O)(=O)c5cccc6cccnc56)c4n3)cc2)CC1` [Example 256], the EC50 at Phospho Src(Y416) was > 1 µM. Also, the IC50 at recombinant human FAK1 and on AURKB (Aurora B) enzyme was < 20 nM throughout.

Consider `CN(c1ccccc1Cn1ccc2cnc(Nc3ccc(C4CNC(=O)CO4)cc3)nc21)S(C)(=O)=O` (stereo not shown) [Example 676], for which the EC50 at Phospho Src(Y416) is > 1 µM. Further, on AURKB (Aurora B) enzyme, the IC50 was < 20 nM.

Consider `CN(c1ncccc1Cn1ccc2cnc(Nc3ccc(N4CCN(C5CC5)CC4)cc3)nc21)S(C)(=O)=O` [Example 659], for which the EC50 (on Phospho Src(Y416); in assay [1]) was > 1 µM each time.

Turning to `Cc1cn(S(=O)(=O)c2cccc3cccnc23)c2nc(Nc3ccc(N4CCC(N(C)C)CC4)cc3)ncc12` [Example 712], at Phospho Src(Y416), the EC50 is > 1 µM. Also, the IC50 at recombinant human FAK1 and at AURKB (Aurora B) enzyme was < 20 nM throughout.

As to `CN(c1ncccc1Cn1ccc2cnc(Nc3cccc(NC(=O)C(C)(C)O)c3)nc21)S(C)(=O)=O` [Example 79], the EC50 on Phospho Src(Y416) was > 1 µM. Also, the IC50 at JAK2 is < 20 nM.

Take `Cn1cc(Nc2ncc3ccn(S(=O)(=O)c4ccccc4C#N)c3n2)cn1` [Example 317]: the EC50 (at Phospho Src(Y416); in assay [1]) was > 1 µM each time.

On to `CN(C)C1CN(c2ccc(Nc3ncc4ccn(Cc5cccnc5N(C)S(C)(=O)=O)c4n3)cc2F)C1` [Example 605], for which the EC50 (at Phospho Src(Y416); in assay [1]) was > 1 µM in each case.

Regarding `CN(c1ccccc1Cn1ccc2cnc(Nc3ccc(NC(=O)C(C)(C)O)cc3)nc21)S(C)(=O)=O` [Example 452], the EC50 (on Phospho Src(Y416); in assay [1]) was > 1 µM each time.

`O=C1CCc2cc(Nc3ncc4ccn(S(=O)(=O)c5ccccc5OC(F)(F)F)c4n3)ccc2N1` [Example 43]: the EC50 at Phospho Src(Y416) is > 1 µM. Also, the IC50 on JAK2 is < 20 nM.

As to `CN(c1ncccc1Cn1ccc2cnc(Nc3ccc(-c4cc[nH]c(=O)c4)cc3)nc21)S(C)(=O)=O` [Example 669], the EC50 (at Phospho Src(Y416); in assay [1]) was > 1 µM each time.

Regarding `CN(c1ncccc1Cn1ccc2cnc(Nc3cccc(N4CCNCC4)c3)nc21)S(C)(=O)=O` [Example 176], at Phospho Src(Y416), the EC50 was > 1 µM. The IC50 at JAK2 and at AURKB (Aurora B) enzyme was < 20 nM in each case.

With `CN(c1ncccc1Cn1ccc2cnc(Nc3ccc(N4CCN5C(=O)CCC5C4)cc3)nc21)S(C)(=O)=O` (stereo not shown) [Example 408], the EC50 on Phospho Src(Y416) was > 1 µM. Moreover, the IC50 at AURKB (Aurora B) enzyme was < 20 nM.

For `COC1CCN(c2ccc(Nc3ncc4ccn(S(=O)(=O)c5cccc6cccnc56)c4n3)cc2)CC1` [Example 412], the EC50 on Phospho Src(Y416) was > 1 µM. Besides, the IC50 on recombinant human FAK1 and at AURKB (Aurora B) enzyme was < 20 nM throughout.

With `CN(c1ccccc1Cn1ccc2cnc(Nc3ccc4c(c3)OCC(=O)N4)nc21)S(C)(=O)=O` [Example 539], at Phospho Src(Y416), the EC50 was > 1 µM. Also, the IC50 on recombinant human FAK1 was < 20 nM.

For `CC(=O)N1CCN(c2ccc(Nc3ncc4ccn(S(=O)(=O)c5cccc6cccnc56)c4n3)cc2)C[C@@H]1C` [Example 449], at Phospho Src(Y416), the EC50 was > 1 µM. For the same compound, the IC50 at recombinant human FAK1 was < 20 nM.

For `CN(c1ccccc1Cn1ccc2cnc(Nc3ccc(N4CCC(O)CC4)cc3)nc21)S(C)(=O)=O` [Example 434], the EC50 at Phospho Src(Y416) is > 1 µM. The IC50 on recombinant human FAK1 and at AURKB (Aurora B) enzyme was < 20 nM in each case.
